Values quoted from earlier work, collected in article PMC10526633 (Structure (London, England : 1993), 2023).

Experiments:
[1] = test system: SKBr3 cells; conditions: highest tested concentration of 20 μM
[2] = test system: HER2 signaling; conditions: highest tested concentration of 20 μM
[3] = test system: N62Q mutant cells; conditions: N62Q GRP94 mutant cells
[4] = test system: GRP94

Row | Effect of limited sugar removal on ligand binding to GRP94 ([4]; EndoH, retains N-acetylglucosamine attached to Asn, ref Yan et al. cell Reports 2020) | Effect of N217A mutation on ligand binding ([4]; N217A mutant of GRP94) | Effect of complete deglycosylation on GRP94 binding to ligand ([4]; PNGase F, ref Yan et al. cell Reports 2020) | SMILES | Cytotoxicity in SKBr3 cells [1] | Effect on HER2 signaling in SKBr3 cells [2] | Sensitivity of N62Q mutant cells to ligand [3]
1 |  |  |  | COC(=O)c1c(O)cc(O)c(Cl)c1CCc1nccn1Cc1ccccc1 [BnIm, methyl 2-(2-(1-benzyl-1H-imidazol-2-yl)ethyl)-3-chloro-4,6-dihydroxybenzoate] | no cytotoxicity | no effect | 
2 | partially reduces | no effect | abolishes | CC(C)NCCCn1c(Sc2cc(Cl)cc(Cl)c2)nc2c(N)ncnc21 [PU-WS13] |  |  | insensitivity
